This note sets out measurements from US20220340629A1, “Myosin Derived Peptides and Related Compounds with Anticoagulant Activities” (THE SCRIPPS RESEARCH INSTITUTE, priority 0001, published 2022).

Read-outs that look alike come from different tables or passages of the source. Starred links: 1 amine or outer side, 2 acyl side, 3 side chain; linkers in the order of their positions; H or OH if unused. Positions of bridges follow the written chain, without caps; N, C: chain ends. Non-standard residues stand in square brackets, D forms with d. Residues, ends and D or L forms follow the SMILES beside them. NMeI = CC[C@H](C)[C@H](NC)C(=O)O; Suc = O=C(CCC(=O)[*:2])[*:1]; NMeA = CN[C@@H](C)C(=O)O; Nle = CCCC[C@H](N)C(=O)O

Experiment [1] has as its system thrombin generation in human platelet poor plasma with skeletal muscle myosin. As to the kind of experiment: Assay 2A: thrombin generation, recalcification of human platelet poor plasma + myosin. The following applies: human platelet poor plasma 30%, myosin 50 nM, CaCl2 10 mmol/L; read-out: 2A (recalcification +myosin). In kind it is biochemical. The protocol: Activities of the various peptides and derivative compounds were also examined via assays using recalcification of human plasma. [One of] these assay format (2A) involves monitoring thrombin generation in platelet poor plasma (PPP). Specifically, pooled normal human platelet poor plasma (PPP) (obtained from George King Bio Medical Inc., Overland Park, Kans.) (30%) was incubated with skeletal muscle myosin at 50 nM in the presence of peptide in DMSO or DMSO alone for 5 min at 37° C. Then, fluorogenic thrombin substrate solution (Z-Gly-Gly-Arg-AMC) (I-1140) with CaCl2 (10 mmol/L final) alone was added to the reaction mixture (total 110 μl) to initiate coagulation. Thrombin generation was followed continuously for 25 min using SPECTRAmax GEMINI XS fluorometer (Molecular Devices, Sunnyvale, Calif.) with excitation and emission wavelengths set at 360 and 460 nm, respectively. The first derivative of fluorescence versus time was used to produce thrombin generation curves with the correction for substrate consumption and inner filter effect. For this assay 96 well plate (total 110 μL) or 384 well plates (total 30 μL) were used.
Activities obtained from Assay 2A (recalcification of human plasma in the presence of myosin) were used to rank the various peptides listed in Table 3. As noted above, this assay monitors recalcification of plasma to stimulate thrombin generation. In this assay, potency of the compounds was determined as the peptide concentration for 50% inhibition of thrombin generation, defined as “IC50”.

The subject of experiment [2] is skeletal muscle myosin-supported prothrombin activation by factors Xa and Va. The experiment is described as follows: Assay 1A: prothrombin activation by factor Xa/factor Va/myosin in purified system. In kind it is biochemical, human factors Xa and Va; rabbit skeletal muscle myosin. The following applies: for inhibition of myosin-supported prothrombin activation at 100 μM: peptide 100 μM, FIG. 1A; for inhibition of myosin's procoagulant activity: data not shown.

The target of experiment [3] is skeletal muscle myosin-supported prothrombin activation by factors Xa and Va (Homo sapiens, UniProt P00742). The experiment is described as above. In kind it is biochemical, human factors Xa and Va; rabbit skeletal muscle myosin. The following applies: purified system.
[4] abbreviates: skeletal muscle myosin, factor Va 5 nM, factor Xa 0.2 nM, prothrombin 0.75 μM, 10 min, read-out: 1A (+myosin).

Sequence of skeletal muscle myosin-supported prothrombin activation by factors Xa and Va (Homo sapiens, UniProt P00742) (P00742 41-179): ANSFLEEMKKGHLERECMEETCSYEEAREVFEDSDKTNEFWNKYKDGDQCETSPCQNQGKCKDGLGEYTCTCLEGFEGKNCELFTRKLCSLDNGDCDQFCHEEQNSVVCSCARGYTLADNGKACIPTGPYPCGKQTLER
Sequence of skeletal muscle myosin-supported prothrombin activation by factors Xa and Va (Homo sapiens, UniProt P00742) (P00742 235-488): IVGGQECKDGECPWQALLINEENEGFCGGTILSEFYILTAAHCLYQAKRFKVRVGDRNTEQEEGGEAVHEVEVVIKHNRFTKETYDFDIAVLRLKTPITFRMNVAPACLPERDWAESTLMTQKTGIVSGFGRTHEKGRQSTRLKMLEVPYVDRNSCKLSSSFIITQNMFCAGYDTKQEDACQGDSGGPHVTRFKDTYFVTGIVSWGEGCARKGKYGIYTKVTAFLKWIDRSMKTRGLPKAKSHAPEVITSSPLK
Sequence of skeletal muscle myosin-supported prothrombin activation by factors Xa and Va (Homo sapiens, UniProt P00742) (P12259 29-737 partner): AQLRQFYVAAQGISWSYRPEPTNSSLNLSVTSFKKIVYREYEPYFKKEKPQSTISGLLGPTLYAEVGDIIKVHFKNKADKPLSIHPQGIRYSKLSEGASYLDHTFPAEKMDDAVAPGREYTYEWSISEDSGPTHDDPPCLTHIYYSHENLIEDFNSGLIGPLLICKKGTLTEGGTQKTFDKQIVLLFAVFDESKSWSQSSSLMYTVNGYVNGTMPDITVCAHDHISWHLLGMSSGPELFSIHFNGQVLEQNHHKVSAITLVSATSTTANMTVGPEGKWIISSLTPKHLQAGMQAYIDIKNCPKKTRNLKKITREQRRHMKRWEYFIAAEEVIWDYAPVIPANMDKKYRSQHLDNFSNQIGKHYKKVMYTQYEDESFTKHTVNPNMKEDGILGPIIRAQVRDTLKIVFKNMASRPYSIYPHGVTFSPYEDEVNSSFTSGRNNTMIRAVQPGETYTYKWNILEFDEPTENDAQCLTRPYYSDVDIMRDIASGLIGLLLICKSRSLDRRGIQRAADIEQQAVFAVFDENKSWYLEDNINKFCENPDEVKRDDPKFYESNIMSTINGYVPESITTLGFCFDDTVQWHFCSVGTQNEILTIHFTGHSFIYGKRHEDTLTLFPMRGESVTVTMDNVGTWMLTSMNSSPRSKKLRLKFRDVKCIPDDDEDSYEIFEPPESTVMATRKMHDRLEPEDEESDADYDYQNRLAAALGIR
Sequence of skeletal muscle myosin-supported prothrombin activation by factors Xa and Va (Homo sapiens, UniProt P00742) (P12259 1574-2224 partner): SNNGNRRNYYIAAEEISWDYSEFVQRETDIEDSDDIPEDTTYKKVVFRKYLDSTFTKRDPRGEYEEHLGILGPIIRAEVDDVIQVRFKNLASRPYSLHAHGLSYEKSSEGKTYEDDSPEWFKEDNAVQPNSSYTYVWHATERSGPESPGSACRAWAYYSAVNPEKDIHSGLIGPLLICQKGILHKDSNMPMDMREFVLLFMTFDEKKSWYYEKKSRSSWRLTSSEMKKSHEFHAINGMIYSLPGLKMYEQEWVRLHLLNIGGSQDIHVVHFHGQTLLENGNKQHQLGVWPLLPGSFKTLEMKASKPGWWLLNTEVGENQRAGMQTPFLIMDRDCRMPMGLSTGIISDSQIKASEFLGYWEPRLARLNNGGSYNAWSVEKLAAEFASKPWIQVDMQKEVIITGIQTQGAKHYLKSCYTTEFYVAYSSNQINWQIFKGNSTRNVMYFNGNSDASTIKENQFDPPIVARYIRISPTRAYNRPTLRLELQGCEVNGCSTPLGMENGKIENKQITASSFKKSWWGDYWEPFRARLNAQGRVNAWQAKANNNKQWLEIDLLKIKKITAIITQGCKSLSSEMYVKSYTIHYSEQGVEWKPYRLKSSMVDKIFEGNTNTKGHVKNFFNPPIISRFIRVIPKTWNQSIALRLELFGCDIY

Regarding `CC[C@H](C)[C@H](NC(=O)[C@H](C)NC(=O)[C@H](CCC(=O)O)NC(=O)[C@H](CCCNC(=N)N)NC(=O)[C@H](CCCNC(=N)N)NC(=O)[C@H](CCC(=O)O)NC(=O)[C@@H]1CCCCNC(=O)CCC(=O)NCCCC[C@H](NC(=O)[C@H](C)NC(=O)[C@H](CC(C)C)NC(=O)[C@H](Cc2ccccc2)NC(=O)CNC(=O)[C@H](CCCNC(=N)N)NC(=O)[C@H](CS)NC(=O)[C@H](CCCNC(=N)N)NC(=O)[C@H](C)N)C(=O)N[C@@H](C(C)C)C(=O)N[C@@H](CCC(=O)O)C(=O)N[C@@H](Cc2ccc(O)cc2)C(=O)N[C@@H](CCC(N)=O)C(=O)N[C@@H](CCCNC(=N)N)C(=O)N[C@@H](CCSC)C(=O)N1)C(=O)N[C@@H](Cc1ccccc1)C(=O)N[C@@H](CS)C(=O)N[C@H](C(=O)N[C@@H](CCC(N)=O)C(=O)N[C@@H](Cc1ccc(O)cc1)C(=O)N[C@@H](CC(N)=O)C(=O)N[C@H](C(=O)N[C@@H](CCCNC(=N)N)C(=O)N[C@H]1CCCCNC(=O)CCC(=O)NCCCC[C@@H](C(=O)N2CCC[C@H]2C(=O)N[C@@H](Cc2c[nH]c3ccccc23)C(N)=O)NC(=O)[C@H](Cc2c[nH]cn2)NC(=O)[C@H](CCCCN)NC(=O)[C@H](C(C)C)NC(=O)[C@H](CC(N)=O)NC(=O)[C@H](CCSC)NC(=O)[C@H](Cc2ccccc2)NC1=O)[C@@H](C)CC)[C@@H](C)CC` [HC161] (H-ARCRGFLAKVEYQRMKERREAIFCIQYNIRKFMNVKHKPW-NH2; linker 9-16, 31-38 via Suc (inferred); N-terminus and C-terminus assumed), in experiment [1], the IC50 is 6.4 µM.

Turning to `CN1CCN(CCCN2c3ccccc3Sc3ccc(C(F)(F)F)cc32)CC1` [TFP, trifluoperazine, reference compound], the “inhibition of myosin-supported prothrombin activation” value in experiment [2] (dose-dependent studies, FIG. 4, TFP 0-100 μM, ELC peptides 0-300 μM) is recorded as “inhibits”.

As for “Ac-GAELRHVLATLGEKMKEEEVEALMA-NH (Ac-GAELRHVLATLGEKMKEEEVEALMA-NH2) [ELC149-173]”, in experiment [2], the “inhibition of myosin-supported prothrombin activation at 100 μM” value is reported as “did not”.

In the case of `Cc1ccc(S(=O)(=O)NCc2ccccc2)cc1` [N-benzyl-p-toluene sulfonamide, reference compound], the “inhibition of myosin's procoagulant activity” value in experiment [2] (up to 0.7 mM) was “did not inhibit”.

On to “Ac-SNEELNAKKIEFEQFLPMMQAISN-NH2 [ELC99-122]”, for which, in experiment [2], the “inhibition of myosin-supported prothrombin activation at 100 μM” value is “did not”.

Regarding `CCCC[C@H](NC(=O)[C@H](Cc1c[nH]c2ccccc12)NC(=O)[C@@H]1CCCN1C(=O)[C@H](Cc1c[nH]c2ccccc12)NC(=O)[C@H](Cc1c[nH]cn1)NC(=O)[C@H](CCCCN)NC(=O)[C@@H](NC(=O)[C@H](CC(N)=O)NC(=O)[C@H](CCCC)NC(=O)[C@H](Cc1ccccc1)NC(=O)[C@H](CO)NC(=O)[C@H](CCCNC(=N)N)NC(=O)[C@@H](NC(=O)[C@H](CC(N)=O)NC(=O)[C@H](Cc1ccc(O)cc1)NC(=O)[C@H](CCC(N)=O)NC(=O)[C@@H](NC(=O)[C@H](CS)NC(=O)[C@H](Cc1ccccc1)NC(=O)[C@@H](NC(=O)[C@H](C)NC)[C@@H](C)CC)[C@@H](C)CC)[C@@H](C)CC)C(C)C)C(=O)N[C@@H](CCCCN)C(N)=O` [HC190] (H-[NMeA]IFCIQYNIRSF[Nle]NVKHWPW[Nle]K-NH2; N-terminus assumed), in experiment [3] (setting [4]), the IC50 is 3.6 µM.

Regarding `COC(=O)N1CCN(Cc2cccc(NC(=O)Nc3ccc(C)nc3)c2F)CC1` [omecamtiv mecarbil, reference compound], in experiment [2] (up to 50 μM), the “inhibition of myosin's procoagulant activity” value was “did not inhibit”.

As for `CC[C@H](C)[C@H](NC(=O)[C@H](C)N)C(=O)N[C@@H](Cc1ccccc1)C(=O)N[C@@H](CS)C(=O)N[C@H](C(=O)N[C@@H](CCC(N)=O)C(=O)N[C@@H](Cc1ccc(O)cc1)C(=O)N[C@@H](CC(N)=O)C(=O)N[C@H](C(=O)N[C@@H](CCCNC(=N)N)C(=O)N[C@@H](CO)C(=O)N[C@@H](Cc1ccccc1)C(=O)N[C@@H](CCSC)C(=O)N[C@@H](C)C(=O)N[C@H](C(=O)N[C@@H](CCCCN)C(=O)N[C@@H](Cc1c[nH]cn1)C(=O)N[C@@H](Cc1c[nH]c2ccccc12)C(=O)N1CCC[C@H]1C(=O)N[C@@H](Cc1c[nH]c2ccccc12)C(=O)N[C@@H](CCSC)C(=O)N[C@@H](CCCCN)C(N)=O)C(C)C)[C@@H](C)CC)[C@@H](C)CC` [HC129] (H-AIFCIQYNIRSFMAVKHWPWMK-NH2; N-terminus assumed), the IC50 in experiment [3] (setting [4]) was 4.2 µM.

On to `CC[C@H](C)[C@H](NC(=O)[C@H](C)N)C(=O)N[C@@H](Cc1ccccc1)C(=O)N[C@@H](CS)C(=O)N[C@H](C(=O)N[C@@H](CCC(N)=O)C(=O)N[C@@H](Cc1ccc(O)cc1)C(=O)N[C@@H](CC(N)=O)C(=O)N[C@H](C(=O)N[C@@H](CCCNC(=N)N)C(=O)N[C@@H](CO)C(=O)N[C@@H](Cc1ccccc1)C(=O)N[C@@H](CCSC)C(=O)N[C@@H](CC(N)=O)C(=O)N[C@H](C(=O)N[C@@H](CCCCN)C(=O)N[C@@H](Cc1c[nH]cn1)C(=O)N[C@@H](Cc1c[nH]c2ccccc12)C(=O)N1CCC[C@H]1C(=O)N[C@@H](C)C(=O)N[C@@H](CCSC)C(=O)N[C@@H](CCCCN)C(N)=O)C(C)C)[C@@H](C)CC)[C@@H](C)CC` [HC135] (H-AIFCIQYNIRSFMNVKHWPAMK-NH2; N-terminus assumed), for which the IC50 in experiment [3] (setting [4]) was found to be 2.7 µM.

For the molecule `CC[C@H](C)[C@H](NC(=O)[C@H](C)N)C(=O)N[C@@H](Cc1ccccc1)C(=O)N[C@@H](CS)C(=O)N[C@H](C(=O)N[C@@H](CCC(N)=O)C(=O)N[C@@H](Cc1ccc(O)cc1)C(=O)N[C@@H](CC(N)=O)C(=O)N[C@H](C(=O)N[C@@H](CCCNC(=N)N)C(=O)N[C@@H](CO)C(=O)N[C@@H](Cc1ccccc1)C(=O)N[C@@H](CCSC)C(=O)N[C@@H](CC(N)=O)C(=O)N[C@H](C(=O)N[C@@H](CCCCN)C(=O)N[C@@H](Cc1c[nH]cn1)C(=O)N[C@@H](Cc1c[nH]c2ccccc12)C(=O)N1CCC[C@H]1C(=O)N[C@@H](Cc1c[nH]c2ccccc12)C(=O)N[C@@H](C)C(=O)N[C@@H](CCCCN)C(N)=O)C(C)C)[C@@H](C)CC)[C@@H](C)CC` [HC136] (H-AIFCIQYNIRSFMNVKHWPWAK-NH2; N-terminus assumed), in experiment [3] (setting [4]), the IC50 worked out at 1.6 µM.

As for `CCCC[C@H](NC(=O)[C@H](Cc1c[nH]c2ccccc12)NC(=O)[C@@H]1CCCN1C(=O)[C@H](Cc1c[nH]c2ccccc12)NC(=O)[C@H](Cc1c[nH]cn1)NC(=O)[C@H](CCCCN)NC(=O)[C@@H](NC(=O)[C@H](CC(N)=O)NC(=O)[C@H](CCCC)NC(=O)[C@H](Cc1ccccc1)NC(=O)[C@H](CO)NC(=O)[C@H](CCCNC(=N)N)NC(=O)[C@@H](NC(=O)[C@H](CC(N)=O)NC(=O)[C@H](Cc1ccc(O)cc1)NC(=O)[C@H](CCC(N)=O)NC(=O)[C@@H](NC(=O)[C@H](CS)NC(=O)[C@H](Cc1ccccc1)NC(=O)[C@H]([C@@H](C)CC)N(C)C(=O)[C@H](C)N)[C@@H](C)CC)[C@@H](C)CC)C(C)C)C(=O)N[C@@H](CCCCN)C(N)=O` [HC192] (H-A[NMeI]FCIQYNIRSF[Nle]NVKHWPW[Nle]K-NH2; N-terminus assumed), the IC50 in experiment [3] (prothrombin activation with myosin, read-out: 1A (+ myosin) IC50) is 2.2 µM.

Consider `CC[C@H](C)[C@H](NC(=O)[C@H](C)N)C(=O)N[C@@H](Cc1ccccc1)C(=O)N[C@@H](CS)C(=O)N[C@H](C(=O)N[C@@H](CCC(N)=O)C(=O)N[C@@H](Cc1ccc(O)cc1)C(=O)N[C@@H](CC(N)=O)C(=O)N[C@H](C(=O)N[C@@H](CCCNC(=N)N)C(=O)N[C@@H](CO)C(=O)N[C@@H](Cc1ccccc1)C(=O)N[C@@H](CCSC)C(=O)N[C@@H](CC(N)=O)C(=O)N[C@H](C(=O)N[C@@H](CCCCN)C(=O)N[C@@H](C)C(=O)N[C@@H](Cc1c[nH]c2ccccc12)C(=O)N1CCC[C@H]1C(=O)N[C@@H](Cc1c[nH]c2ccccc12)C(=O)N[C@@H](CCSC)C(=O)N[C@@H](CCCCN)C(N)=O)C(C)C)[C@@H](C)CC)[C@@H](C)CC` [HC132] (H-AIFCIQYNIRSFMNVKAWPWMK-NH2; N-terminus assumed), for which the IC50 in experiment [3] (setting [4]) was found to be 3.1 µM.

Consider `Cc1ccc2c(c1)C(=O)C1(O)CCN(c3ccccc3)C1=N2` (single isomer, unassigned; (-)) [(-) blebbistatin, reference compound], for which, in experiment [2] (up to 65 μM), the “inhibition of myosin's procoagulant activity” value is “did not inhibit”.
